Measured values as given in ChEMBL document CHEMBL2434948, “Discovery, synthesis, and characterization of an orally bioavailable, brain penetrant inhibitor of mixed lineage kinase 3” (J Med Chem, 2013).
Values belong to the compound of their own block, whether it stands above or below them. Active and inactive are the calls of the source. The rule behind the calls is not given here.

Experiments:
[1] = target: T1, Leucine-rich repeat serine/threonine-protein kinase 2 (Homo sapiens, UniProt Q5S007)
[2] = target: Mitogen-activated protein kinase kinase kinase 11 (Mus musculus, UniProt Q80XI6)
Cytochrome P450 2D6 = Cytochrome P450 2D6 (Homo sapiens, UniProt P10635)
Cytochrome P450 3A4 = Cytochrome P450 3A4 (Homo sapiens, UniProt P08684)
[3] = target: Receptor-type tyrosine-protein kinase FLT3 (Homo sapiens) (UniProt P36888); test: Inhibition of wild type human FLT3 at 1 umol by high throughput ATP-[33P] radiolabeled assay relative to control
Cytochrome P450 2C9 = Cytochrome P450 2C9 (Homo sapiens, UniProt P11712)
[4] = target: T2, Mitogen-activated protein kinase kinase kinase 11 (Homo sapiens, UniProt Q16584)
[5] = target: Receptor-type tyrosine-protein kinase FLT3 (Homo sapiens) (UniProt P36888); test: Inhibition of human wild type FLT3 at 1 uM by qPCR analysis relative to control
[6] = target: Aurora kinase A (Homo sapiens) (UniProt O14965); test: Inhibition of human wild type Aurora kinase A at 1 uM by qPCR analysis relative to control
[7] = target: T1, Leucine-rich repeat serine/threonine-protein kinase 2; test: Inhibition of human wild type LRRK2 at 1 uM by qPCR analysis relative to control
[8] = target: Ribosomal protein S6 kinase alpha-1 (Homo sapiens) (UniProt Q15418); test: Inhibition of human wild type RSK1 at 1 uM by qPCR analysis
[9] = target: T3, Mitogen-activated protein kinase kinase kinase 9 (Homo sapiens, UniProt P80192); test: Inhibition of human wild type MLK1 at 1 uM by qPCR analysis relative to control
[10] = target: Calcium/calmodulin-dependent protein kinase type 1D (Homo sapiens) (UniProt Q8IU85); test: Inhibition of human wild type CAMK1D at 1 uM by qPCR analysis relative to control
[11] = target: Ribosomal protein S6 kinase alpha-6 (Homo sapiens) (UniProt Q9UK32); test: Inhibition of human wild type RSK4 at 1 uM by qPCR analysis
[12] = target: Serine/threonine-protein kinase BRSK2 (Homo sapiens) (UniProt Q8IWQ3); test: Inhibition of human wild type BRSK2 at 1 uM by qPCR analysis relative to control
[13] = target: Calcium/calmodulin-dependent protein kinase type II subunit delta (Homo sapiens) (UniProt Q13557); test: Inhibition of human wild type CAMK2D at 1 uM by qPCR analysis relative to control
[14] = target: T4, Tyrosine-protein kinase ABL1 (Homo sapiens, UniProt P00519); test: Inhibition of human wild type ABL1 at 1 uM by qPCR analysis relative to control
[15] = target: 5'-AMP-activated protein kinase catalytic subunit alpha-2 (Homo sapiens) (UniProt P54646); test: Inhibition of human wild type AMPKalpha2 at 1 uM by qPCR analysis relative to control
[16] = target: T3, Mitogen-activated protein kinase kinase kinase 9
[17] = target: Mitogen-activated protein kinase kinase kinase kinase 4 (Homo sapiens) (UniProt O95819); test: Binding affinity to human wild type MAP4K4 at 1 uM by qPCR analysis
[18] = tested on: Leucine-rich repeat serine/threonine-protein kinase 2 (Homo sapiens), Q5S007 [G2019S]; test: Inhibition of human LRRK2 G2019S mutant at 1 uM by qPCR analysis relative to control
[19] = target: T2, Mitogen-activated protein kinase kinase kinase 11; remark: listed apart in the source
[20] = target: T4, Tyrosine-protein kinase ABL1; test: Inhibition of human ABL1 mutant at 1 uM by qPCR analysis
[21] = target: Mitogen-activated protein kinase kinase kinase 10 (Homo sapiens, UniProt Q02779)
[22] = target: Aurora kinase C (Homo sapiens) (UniProt Q9UQB9); test: Inhibition of human wild type Aurora kinase C at 1 uM by qPCR analysis relative to control
[23] = target: Mast/stem cell growth factor receptor Kit (Homo sapiens) (UniProt P10721); test: Inhibition of human wild type KIT at 1 uM by qPCR analysis relative to control
[24] = target: TRAF2 and NCK-interacting protein kinase (Homo sapiens) (UniProt Q9UKE5); test: Binding affinity to human wild type TNIK at 1 uM by qPCR analysis
[25] = target: Calcium/calmodulin-dependent protein kinase type II subunit alpha (Homo sapiens) (UniProt Q9UQM7); test: Inhibition of human wild type CAMK2A at 1 uM by qPCR analysis relative to control
[26] = target: Inhibitor of nuclear factor kappa-B kinase subunit alpha (Homo sapiens, UniProt O15111)
[27] = target: Inhibitor of nuclear factor kappa-B kinase subunit beta (Homo sapiens, UniProt O14920)
[28] = target: T5, Receptor-type tyrosine-protein kinase FLT3 (Homo sapiens, UniProt P36888); test: cell-based
T5 sequence (P36888 whole entry): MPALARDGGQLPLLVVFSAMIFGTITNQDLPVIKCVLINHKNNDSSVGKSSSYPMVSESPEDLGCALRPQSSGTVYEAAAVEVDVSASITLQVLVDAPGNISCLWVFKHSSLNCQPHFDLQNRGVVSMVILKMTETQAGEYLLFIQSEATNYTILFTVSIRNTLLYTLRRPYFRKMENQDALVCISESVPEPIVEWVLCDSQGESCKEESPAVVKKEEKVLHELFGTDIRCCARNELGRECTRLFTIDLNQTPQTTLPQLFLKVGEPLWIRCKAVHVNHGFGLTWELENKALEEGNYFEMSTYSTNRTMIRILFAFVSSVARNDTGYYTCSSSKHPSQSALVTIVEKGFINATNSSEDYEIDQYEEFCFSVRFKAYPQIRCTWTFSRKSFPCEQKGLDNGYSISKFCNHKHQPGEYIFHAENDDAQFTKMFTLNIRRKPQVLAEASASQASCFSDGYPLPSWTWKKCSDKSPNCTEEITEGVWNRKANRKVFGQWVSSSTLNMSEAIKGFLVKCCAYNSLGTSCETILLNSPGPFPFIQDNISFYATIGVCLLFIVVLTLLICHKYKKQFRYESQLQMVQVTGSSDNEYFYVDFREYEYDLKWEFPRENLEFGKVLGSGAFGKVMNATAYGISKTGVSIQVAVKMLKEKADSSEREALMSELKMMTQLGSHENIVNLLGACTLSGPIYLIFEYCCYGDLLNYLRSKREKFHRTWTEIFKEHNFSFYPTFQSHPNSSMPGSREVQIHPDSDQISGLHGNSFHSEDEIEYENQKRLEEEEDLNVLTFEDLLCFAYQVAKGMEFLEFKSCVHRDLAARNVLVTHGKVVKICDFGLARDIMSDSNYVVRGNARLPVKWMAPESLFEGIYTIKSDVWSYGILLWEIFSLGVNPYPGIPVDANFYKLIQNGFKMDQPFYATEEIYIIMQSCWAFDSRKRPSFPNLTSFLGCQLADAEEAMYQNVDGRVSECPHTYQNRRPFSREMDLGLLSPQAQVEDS

[29] = target: Tyrosine-protein kinase ABL1 (Homo sapiens, UniProt P00519, T315I)
Insulin receptor = Insulin receptor (Homo sapiens, UniProt P06213)
[30] = target: Cyclin-dependent kinase 2 (Homo sapiens, UniProt P24941)
[31] = target: T5, Receptor-type tyrosine-protein kinase FLT3

Chain of Mitogen-activated protein kinase kinase kinase 11 (Mus musculus, UniProt Q80XI6) (Q80XI6 whole entry): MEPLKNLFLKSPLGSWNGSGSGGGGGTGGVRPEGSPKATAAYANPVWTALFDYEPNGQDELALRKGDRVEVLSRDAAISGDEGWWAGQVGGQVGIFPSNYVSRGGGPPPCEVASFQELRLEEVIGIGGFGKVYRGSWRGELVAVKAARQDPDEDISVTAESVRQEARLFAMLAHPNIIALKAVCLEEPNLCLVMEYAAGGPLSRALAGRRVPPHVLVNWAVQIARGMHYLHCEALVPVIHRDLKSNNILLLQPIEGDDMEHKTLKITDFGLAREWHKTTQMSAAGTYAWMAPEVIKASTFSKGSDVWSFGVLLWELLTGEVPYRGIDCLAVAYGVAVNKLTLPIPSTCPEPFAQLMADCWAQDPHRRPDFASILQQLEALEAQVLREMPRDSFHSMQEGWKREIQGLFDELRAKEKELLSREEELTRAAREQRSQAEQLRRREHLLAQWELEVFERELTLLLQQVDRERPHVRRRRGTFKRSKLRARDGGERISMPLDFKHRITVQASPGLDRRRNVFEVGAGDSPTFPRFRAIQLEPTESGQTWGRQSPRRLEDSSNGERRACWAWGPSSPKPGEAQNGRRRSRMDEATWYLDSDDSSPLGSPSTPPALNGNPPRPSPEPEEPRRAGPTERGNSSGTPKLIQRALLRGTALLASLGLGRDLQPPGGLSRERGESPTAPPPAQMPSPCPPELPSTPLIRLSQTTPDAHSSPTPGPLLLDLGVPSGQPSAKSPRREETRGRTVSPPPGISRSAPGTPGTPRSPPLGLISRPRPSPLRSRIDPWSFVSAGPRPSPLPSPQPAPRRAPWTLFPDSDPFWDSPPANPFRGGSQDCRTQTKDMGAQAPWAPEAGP
Chain of Cytochrome P450 3A4 (P08684 whole entry): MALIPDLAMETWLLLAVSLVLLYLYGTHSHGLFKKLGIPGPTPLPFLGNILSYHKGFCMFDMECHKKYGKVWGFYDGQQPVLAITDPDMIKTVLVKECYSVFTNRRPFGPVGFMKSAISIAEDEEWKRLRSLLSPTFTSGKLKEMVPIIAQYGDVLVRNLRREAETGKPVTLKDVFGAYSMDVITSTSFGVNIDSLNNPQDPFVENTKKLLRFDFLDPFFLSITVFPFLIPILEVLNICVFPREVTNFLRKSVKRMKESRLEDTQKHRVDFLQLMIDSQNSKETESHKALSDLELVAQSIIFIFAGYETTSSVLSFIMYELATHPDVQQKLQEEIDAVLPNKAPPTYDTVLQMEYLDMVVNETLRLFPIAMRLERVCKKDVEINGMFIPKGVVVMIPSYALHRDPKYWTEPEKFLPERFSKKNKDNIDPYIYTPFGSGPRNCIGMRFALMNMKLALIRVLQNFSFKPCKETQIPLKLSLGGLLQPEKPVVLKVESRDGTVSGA
Chain of Cytochrome P450 2C9 (P11712 whole entry): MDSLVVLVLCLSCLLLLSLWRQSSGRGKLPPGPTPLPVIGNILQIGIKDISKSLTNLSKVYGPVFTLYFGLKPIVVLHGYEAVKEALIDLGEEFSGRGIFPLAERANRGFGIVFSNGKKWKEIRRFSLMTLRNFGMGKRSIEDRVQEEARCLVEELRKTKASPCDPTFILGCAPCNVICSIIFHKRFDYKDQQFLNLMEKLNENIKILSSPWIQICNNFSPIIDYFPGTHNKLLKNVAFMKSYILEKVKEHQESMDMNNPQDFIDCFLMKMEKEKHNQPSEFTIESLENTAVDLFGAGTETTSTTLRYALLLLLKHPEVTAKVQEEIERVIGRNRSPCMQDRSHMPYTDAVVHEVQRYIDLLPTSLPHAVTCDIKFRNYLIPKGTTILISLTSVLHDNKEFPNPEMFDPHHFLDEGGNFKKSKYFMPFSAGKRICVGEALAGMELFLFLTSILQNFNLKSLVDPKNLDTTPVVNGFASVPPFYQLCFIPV
T1 sequence (Q5S007 whole entry): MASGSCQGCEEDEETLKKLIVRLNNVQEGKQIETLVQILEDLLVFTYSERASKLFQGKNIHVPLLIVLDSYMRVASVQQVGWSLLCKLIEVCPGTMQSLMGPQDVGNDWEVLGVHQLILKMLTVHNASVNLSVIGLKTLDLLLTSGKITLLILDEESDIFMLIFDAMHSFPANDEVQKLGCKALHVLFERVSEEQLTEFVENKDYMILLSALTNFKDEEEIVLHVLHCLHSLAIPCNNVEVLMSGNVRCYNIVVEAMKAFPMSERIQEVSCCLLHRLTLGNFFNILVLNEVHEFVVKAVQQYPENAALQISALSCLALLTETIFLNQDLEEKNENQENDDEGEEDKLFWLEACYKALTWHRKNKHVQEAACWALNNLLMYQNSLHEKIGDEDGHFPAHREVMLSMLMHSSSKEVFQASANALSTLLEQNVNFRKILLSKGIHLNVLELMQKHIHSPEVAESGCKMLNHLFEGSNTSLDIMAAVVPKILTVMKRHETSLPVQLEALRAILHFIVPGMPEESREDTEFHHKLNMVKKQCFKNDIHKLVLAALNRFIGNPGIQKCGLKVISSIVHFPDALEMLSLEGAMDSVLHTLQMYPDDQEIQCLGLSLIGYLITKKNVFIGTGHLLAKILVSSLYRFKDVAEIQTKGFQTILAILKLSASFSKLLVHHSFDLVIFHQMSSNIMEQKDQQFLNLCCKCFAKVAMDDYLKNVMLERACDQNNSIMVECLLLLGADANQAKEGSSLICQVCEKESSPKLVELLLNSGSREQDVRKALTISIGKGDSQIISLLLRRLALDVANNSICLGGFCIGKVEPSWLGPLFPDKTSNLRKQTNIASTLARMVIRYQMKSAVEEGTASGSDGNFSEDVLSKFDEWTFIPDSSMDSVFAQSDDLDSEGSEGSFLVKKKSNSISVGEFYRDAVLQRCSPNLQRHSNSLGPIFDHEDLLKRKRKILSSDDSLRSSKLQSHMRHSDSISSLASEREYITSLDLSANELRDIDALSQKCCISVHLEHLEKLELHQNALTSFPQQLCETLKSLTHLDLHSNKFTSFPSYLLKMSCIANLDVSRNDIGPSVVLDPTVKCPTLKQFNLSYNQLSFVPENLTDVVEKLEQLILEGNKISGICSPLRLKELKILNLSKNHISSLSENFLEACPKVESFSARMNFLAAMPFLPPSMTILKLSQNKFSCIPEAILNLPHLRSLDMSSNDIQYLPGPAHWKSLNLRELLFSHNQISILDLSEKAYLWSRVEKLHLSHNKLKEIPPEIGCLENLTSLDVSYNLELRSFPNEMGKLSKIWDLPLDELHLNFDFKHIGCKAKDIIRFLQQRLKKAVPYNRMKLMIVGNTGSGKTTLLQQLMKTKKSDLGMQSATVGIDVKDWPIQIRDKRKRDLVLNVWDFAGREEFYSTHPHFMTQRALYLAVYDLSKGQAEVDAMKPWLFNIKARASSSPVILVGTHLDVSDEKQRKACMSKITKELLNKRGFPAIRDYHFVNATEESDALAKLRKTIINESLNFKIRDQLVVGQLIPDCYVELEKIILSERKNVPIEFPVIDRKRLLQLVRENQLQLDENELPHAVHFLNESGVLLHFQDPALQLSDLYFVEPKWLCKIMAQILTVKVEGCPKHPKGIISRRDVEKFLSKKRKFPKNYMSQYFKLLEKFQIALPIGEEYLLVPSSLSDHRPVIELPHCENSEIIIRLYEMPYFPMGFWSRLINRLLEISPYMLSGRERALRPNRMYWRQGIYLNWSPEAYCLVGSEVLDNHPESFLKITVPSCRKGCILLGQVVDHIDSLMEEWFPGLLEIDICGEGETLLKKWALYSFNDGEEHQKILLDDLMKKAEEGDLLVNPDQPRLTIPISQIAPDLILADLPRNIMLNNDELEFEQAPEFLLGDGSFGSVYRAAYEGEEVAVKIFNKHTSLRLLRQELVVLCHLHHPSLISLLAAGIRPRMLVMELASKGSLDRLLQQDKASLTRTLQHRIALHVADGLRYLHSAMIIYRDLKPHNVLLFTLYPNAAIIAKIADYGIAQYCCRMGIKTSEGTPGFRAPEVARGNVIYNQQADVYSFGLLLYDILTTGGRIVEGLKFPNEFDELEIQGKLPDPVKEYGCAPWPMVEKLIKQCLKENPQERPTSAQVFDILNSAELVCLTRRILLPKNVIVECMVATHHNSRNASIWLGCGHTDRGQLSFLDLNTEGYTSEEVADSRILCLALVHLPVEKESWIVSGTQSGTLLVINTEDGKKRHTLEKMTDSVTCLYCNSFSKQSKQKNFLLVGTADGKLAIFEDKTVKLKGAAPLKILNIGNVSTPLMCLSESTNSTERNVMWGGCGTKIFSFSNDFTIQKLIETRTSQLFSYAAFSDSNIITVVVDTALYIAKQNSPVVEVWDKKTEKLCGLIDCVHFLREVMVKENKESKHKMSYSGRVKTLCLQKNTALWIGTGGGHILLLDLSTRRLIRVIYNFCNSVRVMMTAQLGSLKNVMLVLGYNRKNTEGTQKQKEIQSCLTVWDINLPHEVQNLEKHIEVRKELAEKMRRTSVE
Chain of Cytochrome P450 2D6 (P10635 whole entry): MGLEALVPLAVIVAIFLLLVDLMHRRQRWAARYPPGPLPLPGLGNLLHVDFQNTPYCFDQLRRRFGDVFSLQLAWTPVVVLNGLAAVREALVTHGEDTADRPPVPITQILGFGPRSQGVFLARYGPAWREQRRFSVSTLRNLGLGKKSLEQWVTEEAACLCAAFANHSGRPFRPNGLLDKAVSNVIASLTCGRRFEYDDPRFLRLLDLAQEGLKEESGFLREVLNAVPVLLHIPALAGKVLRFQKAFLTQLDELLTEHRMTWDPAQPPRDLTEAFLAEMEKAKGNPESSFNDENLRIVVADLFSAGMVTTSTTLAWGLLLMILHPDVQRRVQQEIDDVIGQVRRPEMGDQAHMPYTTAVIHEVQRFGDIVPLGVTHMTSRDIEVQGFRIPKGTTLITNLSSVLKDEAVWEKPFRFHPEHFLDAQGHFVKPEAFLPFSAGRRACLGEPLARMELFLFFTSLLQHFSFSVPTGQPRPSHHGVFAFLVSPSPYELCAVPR
Chain of Leucine-rich repeat serine/threonine-protein kinase 2 (Homo sapiens), Q5S007 [G2019S] (Q5S007 whole entry G2019S): as the sequence (Q5S007 whole entry) above, with G2019S counted along it

SMILES: COc1cc(-c2cnc3[nH]cc(-c4ccc5[nH]ccc5c4)c3c2)cc(OC)c1OC
IC50 [1]: 35 nM
IC50 [2]: 2700 nM
IC50 (Cytochrome P450 2D6): > 30000 nM
IC50 (Cytochrome P450 3A4): > 30000 nM
inhibition [3]: 98%
IC50 (Cytochrome P450 2C9): > 30000 nM
IC50 [4]: 3 nM

SMILES: Nc1ncc(-c2cnc3[nH]cc(-c4ccc5[nH]ccc5c4)c3c2)cn1
IC50 [2]: 510 nM
IC50 (Cytochrome P450 2D6): 13200 nM
IC50 (Cytochrome P450 3A4): 21800 nM
inhibition [3]: 97%
IC50 (Cytochrome P450 2C9): > 30000 nM
IC50 [4]: 78 nM

IC50 [1]: 46 nM
IC50 [2]: 430 nM
IC50 (Cytochrome P450 2D6): 3700 nM
IC50 (Cytochrome P450 3A4): 4200 nM
inhibition [3]: 98%
IC50 (Cytochrome P450 2C9): 13700 nM
IC50 [4]: 19 nM
SMILES: Nc1ccc(-c2cnc3[nH]cc(-c4ccc5[nH]ccc5c4)c3c2)cn1

SMILES: CCSCc1ccc2c(c1)c1c3c(c4c5cc(CSCC)ccc5n5c4c1n2[C@H]1C[C@](O)(C(=O)OC)[C@]5(C)O1)CNC3=O [CEP-1347]
inhibition [5]: > 99%
inhibition [6]: > 99%
inhibition [7]: 100%
inhibition [8]: Active
inhibition [9]: > 99%
inhibition [10]: > 99%
inhibition [11]: Active
inhibition [12]: 94%
inhibition [13]: 87%
inhibition [14]: inactive
inhibition [15]: 98%
IC50 [16]: < 1 nM
inhibition [17]: Active
inhibition [18]: 98%
IC50 [19]: 6 nM
inhibition [20]: inactive
IC50 [21]: 2 nM
inhibition [22]: > 99%
inhibition [23]: > 99%
inhibition [24]: Active
inhibition [25]: 84%

SMILES: COc1cc(-c2cnc3[nH]cc(-c4ccc(N)nc4)c3c2)cc(OC)c1OC
IC50 [1]: 5 nM
IC50 [2]: 120 nM
IC50 (Cytochrome P450 2D6): > 30000 nM
IC50 (Cytochrome P450 3A4): > 30000 nM
inhibition [3]: 99%
IC50 (Cytochrome P450 2C9): > 30000 nM
IC50 [4]: 7 nM

IC50 [26]: 330 nM
IC50 [27]: 288 nM
IC50 [28]: 730 nM
IC50 [29]: 285 nM
IC50 (Insulin receptor): 1290 nM
IC50 [30]: 720 nM
IC50 [31]: 9.5 nM
IC50 [4]: 21 nM
SMILES: CN1CCN(Cc2ccc(-c3cnc4[nH]cc(-c5cnc6[nH]ccc6c5)c4c3)cc2)CC1

SMILES: COc1cc(-c2cnc3[nH]cc(-c4cnc(N)nc4)c3c2)cc(OC)c1OC
IC50 [2]: 990 nM
IC50 (Cytochrome P450 2D6): > 30000 nM
IC50 (Cytochrome P450 3A4): > 30000 nM
IC50 (Cytochrome P450 2C9): > 30000 nM
IC50 [4]: 9 nM

IC50 [1]: 2970 nM
inhibition [3]: 88%
SMILES: COc1cc(-c2cnc3[nH]c(=O)n(-c4ccc5[nH]ccc5c4)c3n2)cc(OC)c1OC
